The numbers were not newly measured in US20180263245A1, “WATER-BASED DISINFECTANT” (priority 2015, published 2018), which cites them from elsewhere.

The conditions of series [1]: EPA.
The subject of another series is bacteria. Conditions: without the Cu π-complex.

Take `CCCCCCCCCCCC[N+](C)(C)Cc1ccccc1.[Cl-]` [C12 Quaternary Ammonium Chloride, Dodecyl Dimethyl Benzyl Ammonium Chloride]: in series [1], the genetic toxicity entry is given as “does not believe it is a genetic toxicant”, the reproductive risks entry is listed as “does not believe it poses unacceptable reproductive risks” and the tumors entry is “negative for introduction of tumors”. Moreover, in the series with bacteria, the “bacterial reduction versus FDA minimum performance standards” value is on record as “exceeded the FDA-indicated minimum performance standards”.
